Laboratory results from US8629169B2, “4-substituted-3-phenylsulfanylmethyl-bicyclo[3.1.0]hexane compounds as mGluR 2/3 antagonists” (Eli Lilly and Company, priority 2010, dated 2014).

Experiments:
human mGlu2 receptor = target: T1, human mGlu2 receptor (Homo sapiens, UniProt Q14416); experiment: mGlu2 receptor cAMP antagonist assay; format: cell-based; details: reversal of DCG IV (EC90) inhibition of forskolin-stimulated cAMP; relative IC50
T1 construct: expressed in transfected cells; host or cells: AV12 cells co-expressing rat EAAT1
Procedure: (§1) Antagonist activity is assayed in recombinant AV12 cells stably expressing human mGlu2 or mGlu3 receptors and the rat glutamate transporter EAAT1 (Excitatory Amino Acid Transporter 1). The cell lines are maintained by culturing in DMEM with high glucose and pyridoxine hydrochloride supplemented with 5% dialyzed fetal bovine serum (FBS), 1 mM sodium pyruvate, 1 mM HEPES and 1 mM L-glutamine; geneticin and hygromycin B are used as selection antibiotics.
(§2) Reversal of the inhibition of forskolin-stimulated cAMP production by test compounds is measured using homogeneous time resolved fluorescence technology (HTRF; Cisbio cat #62AM4PEB). The medium is removed and the cells are incubated with 100 μl cAMP stimulation buffer (STIM) for 30 minutes at 37° C. […] Cells are incubated at 37° C. for 20 minutes. To measure the cAMP levels, cAMP-d2 conjugate and anti cAMP-cryptate conjugate in lysis buffer are incubated with the treated cells at room temperature for 1 hour (mGlu2) or 1.5 hour (mGlu3). […] The raw data are converted to cAMP amount (pmole/well) using a cAMP standard curve generated for each experiment. Relative IC50 values are calculated from the top-bottom range of the concentration response curve using a four-parameter logistic curve fitting program (ActivityBase v5.3.1.22).

human mGlu3 receptor = target: T2, human mGlu3 receptor (Homo sapiens, UniProt Q14832); experiment: mGlu3 receptor cAMP antagonist assay; format: cell-based; details: reversal of DCG IV (EC90) inhibition of forskolin-stimulated cAMP; relative IC50
T2 construct: expressed in transfected cells; host or cells: AV12 cells co-expressing rat EAAT1
Procedure: as §1, §2

human mGlu1 receptor = target: T3, human mGlu1 receptor (Homo sapiens, UniProt Q13255); experiment: FLIPR calcium antagonist assay for mGlu receptor selectivity, mGlu1; format: cell-based; details: inhibition of EC90 glutamate response, read-out: mGlu1 % inhib. @12.5 μM
T3 construct: expressed in transfected cells; host or cells: AV12 cells co-expressing rat EAAT1
Source text: (§3) The relative antagonist potencies of the compounds of the invention for the other human mGlu receptors can be assessed with either a cAMP assay or fluorometric calcium response assay (see for example Fell et al., JPET (in press)). Briefly, individual AV12 cell lines containing the rat EAAT1 glutamate transporter and stably expressing the human mGlu1, 2, 3, 4, 5, 6, & 8 receptors are used for these studies. The mGlu1 and 5 receptors are Gq-coupled, so they naturally signal through phospholipase C, producing a calcium flux response which can be used to measure receptor activation using a Fluorometric Imaging Plate Reader (FLIPR, Molecular Devices). […]
(§4) Intracellular calcium levels are monitored using FLIPR before and after the addition of test compounds and Fluo-3 AM (Invitrogen) or Calcium 4 (Molecular Devices) dye, depending on the cell line. […] The results are analyzed using GraphPad Prism v4.03 to calculate the concentrations of glutamate needed to induce the EC90 (antagonist assay) and EC10 (potentiator assay) responses.
(§5) Compounds are tested at each mGlu receptor in a two-addition FLIPR assay using a 10-point concentration response profile starting at a final concentration of 25 μM for the agonist assay and 12.5 μM for the potentiator and antagonist assays. […] Agonist effects are quantified as percent stimulation induced by compound alone relative to the maximal glutamate response. […]

human mGlu4 receptor = target: T4, human mGlu4 receptor (Homo sapiens, UniProt Q14833); experiment: FLIPR calcium antagonist assay for mGlu receptor selectivity, mGlu4; format: cell-based; details: inhibition of EC90 glutamate response, read-out: mGlu4 % inhib. @12.5 μM
T4 construct: expressed in transfected cells; host or cells: AV12 cells co-expressing rat EAAT1 and Galpha15
Source text: as §3, §4, §5

human mGlu5 receptor = target: T5, human mGlu5 receptor (Homo sapiens, UniProt P41594); experiment: FLIPR calcium antagonist assay for mGlu receptor selectivity, mGlu5; format: cell-based; details: inhibition of EC90 glutamate response, read-out: mGlu5 % inhib. @12.5 μM
T5 construct: expressed in transfected cells; host or cells: AV12 cells co-expressing rat EAAT1
Source text: as §3, §4, §5

human mGlu6 receptor = target: T6, human mGlu6 receptor (Homo sapiens, UniProt O15303); experiment: mGlu6 cAMP antagonist assay (reference agonist L-AP4); format: cell-based; details: cAMP format
T6 construct: expressed in transfected cells; host or cells: AV12 cells co-expressing rat EAAT1
Source text: as §3, with “Devices). The cell lines expressing the mGlu2, 3, 4, and 8 receptor are designed to express the Gα15 subunit so that these Gi-coupled receptors will generate a calcium flux response similar to the mGlu1 and 5 receptor expressing cell lines. The mGlu6 receptor is tested in a cAMP format using methods analogous to those developed for mGlu2 and mGlu3 above.” for “Devices).”
Antagonist activity in mGlu6 cells is measured using cAMP in a method analogous to that described above for mGlu2 and mGlu3 activity, except that the reference agonist was L-AP4 (Tocris). […] Relative IC50 and EC50 values are calculated from the top-bottom range of the concentration response curve using a four-parameter logistic curve fitting program (ActivityBase v5.3.1.22).

human mGlu8 receptor = target: T7, human mGlu8 receptor (Homo sapiens, UniProt O00222); experiment: FLIPR calcium antagonist assay for mGlu receptor selectivity, mGlu8; format: cell-based
T7 construct: expressed in transfected cells; host or cells: AV12 cells co-expressing rat EAAT1 and Galpha15
Source text: The relative antagonist potencies of the compounds of the invention for the other human mGlu receptors can be assessed with either a cAMP assay or fluorometric calcium response assay (see for example Fell et al., JPET (in press)). Briefly, individual AV12 cell lines containing the rat EAAT1 glutamate transporter and stably expressing the human mGlu1, 2, 3, 4, 5, 6, & 8 receptors are used for these studies. The mGlu1 and 5 receptors are Gq-coupled, so they naturally signal through phospholipase C, producing a calcium flux response which can be used to measure receptor activation using a Fluorometric Imaging Plate Reader (FLIPR, Molecular Devices). The cell lines expressing the mGlu2, 3, 4, and 8 receptor are designed to express the Gα15 subunit so that these Gi-coupled receptors will generate a calcium flux response similar to the mGlu1 and 5 receptor expressing cell lines. The mGlu6 receptor is tested in a cAMP format using methods analogous to those developed for mGlu2 and mGlu3 above. These cell lines are maintained as previously described except that amounts of L-glutamine and selection agents (geneticin, hygromycin B, zeocin, and blasticidin) may vary depending on the cell line. Confluent cultures are passaged biweekly.
Intracellular calcium levels are monitored using FLIPR before and after the addition of test compounds and Fluo-3 AM (Invitrogen) or Calcium 4 (Molecular Devices) dye, depending on the cell line. Cells are plated 24 hours prior to assay in a variable concentration of glutamine and a variable density of cells per well, depending on the cell line. The medium is removed and the cells are incubated with 8 μM of dye (50 μl per well) for 90 or 120 minutes (depending on cell line) at 25° C. […] The results are analyzed using GraphPad Prism v4.03 to calculate the concentrations of glutamate needed to induce the EC90 (antagonist assay) and EC10 (potentiator assay) responses.
Compounds are tested at each mGlu receptor in a two-addition FLIPR assay using a 10-point concentration response profile starting at a final concentration of 25 μM for the agonist assay and 12.5 μM for the potentiator and antagonist assays. […] Agonist effects are quantified as percent stimulation induced by compound alone relative to the maximal glutamate response. Antagonist effects are quantified by calculating the percent inhibition of the EC90 glutamate response caused by the compound. Potentiation effects are quantified as percent increase in the presence of an EC10 response in glutamate relative to the ECmax response. All data are calculated as relative IC50 or EC50 values using a four-parameter logistic curve fitting program (ActivityBase v5.3.1.22).

male NIH-Swiss mice = experiment: Forced-swim test in mice (mFST); format: in vivo, mouse; details: for ED60 (mg/kg): immobility, last 4 min of 6 min; for Maximal Decrease (1 − compound/control) * 100%: immobilization time
[1] = test system: mGlu2+/+ and mGlu2−/− mice; experiment: mFST in mGlu2 knock-out mice and +/+ littermates
Procedure: Briefly, male NIH-Swiss mice (Harlan Sprague-Dawley, Indianapolis, Ind.) weighing between 25-30 g are used. Group housed animals are removed from the vivarium to the testing area in their own cages and allowed to adapt to the new environment for at least 1 hour before testing. […] Mice are placed in a cylinder (diameter: 10 cm; height: 25 cm) filled with 6 cm of water (22-25° C.) for 6 min. The duration of immobility during the last 4 min. of the 6 min. period of the test was scored. A mouse is recorded as immobile when floating motionless or making only those movements necessary to keep its head above water.
In other experiments, mice with receptor deletions (mGlu2 knock-out mice) are studied; these mice are bred by heterozygote×heterozygote breeding and used as littermates for −/− and +/+ mouse comparisons (Taconic Farms).

mice = experiment: mFST alone and in combination with SSRI; format: in vivo, mouse; details: Example 12 10 mg/kg p.o.
male Wistar rats = experiment: Wakefulness and behavioral monitoring in rats (EEG/EMG/LMA); format: in vivo; details: rat; for Locomotor Activity Intensity, mean difference from vehicle controls: averaged over the first 7 hr post-treatment; for Cumulative Time Awake 8-19 hours, mean difference from vehicle controls: rebound hypersomnolence measure
Procedure: Representative compounds of the present invention are tested in rats for their ability to increase the amount of time in a state of wakefulness without undesired effects such as inhibition of REM sleep, waking motor impairment (disproportionate hyper- or hypolocomotion), and/or rebound hypersomnia Test animals are continuously monitored by electro-encephalograms (EEG), electromyograms (EMG), and motion to measure cumulative time awake, rebound hypersomnia, and locomotor activity intensity during wakefulness. Methods for such studies are known in the art (see for example methods described in Edgar D M, Seidel W F. Modafinil induces wakefulness without intensifying motor activity or subsequent rebound hypersomnolence in the rat. J Pharmacology & Experimental Therapeutics 1997; 283: 757-769; van Gelder R N, Edgar D M, Dement W C. Real-time automated sleep scoring: validation of a microcomputer-based system for mice. Sleep 1991, 14: 48-55; and Gross B A, Walsh C M, Turakhia A A, Booth V, Mashour G A, Poe G R. Open-source logic-based automated sleep scoring software using electrophysiological recordings in rats. J Neurosci Methods. 2009; 184(1):10-8.) Studies are conducted as follows:
Adult, male Wistar rats (approximately 270-300 g at time of surgery) are surgically fitted for chronic recording of EEG, EMG, body temperature, and motion as follows: Rats are surgically prepared with a cranial implant consisting of four stainless steel screws for EEG recording (two frontal [3.9 mm anterior from bregma, and ±2.0 mm mediolaterally] and two occipital [6.4 mm posterior from bregma, ±5.5 mm mediolaterally]), and with two Teflon-coated stainless steel wires for EMG recording (positioned under the nuchal trapezoid muscles). All leads are soldered to a miniature connector (Microtech, Boothwyn, Pa.) prior to surgery. The implant assembly is affixed to the skull by the combination of the stainless steel EEG recording screws, cyanoacrylate applied between the implant connector and skull, and dental acrylic. Body temperature and locomotor activity is monitored via a miniature transmitter (Minimitter PDT4000G, Philips Respironics, Bend, Oreg.) surgically placed into the abdomen. At least 3 weeks are allowed for recovery.
Each rat is housed individually within a microisolator cage modified with an inserted polycarbonate filter-top riser to allow more vertical headroom. A flexible cable that minimally restricts movement is connected at one end to a commutator affixed to the cage top and at the other end to the animal's cranial implant. Each cage is located within separate, ventilated compartments of a stainless steel sleep-wake recording chamber. Food and water are available ad libitum and the ambient temperature is maintained at about 23±1° C. A 24-hr light-dark cycle (LD 12:12) using fluorescent light is maintained throughout the study. Relative humidity averages approximately 50%. Animals are undisturbed for at least 30 hrs before and after each treatment.
The vehicle or one of the compound dose levels is administered pseudo-randomly such that no rat receives the same treatment twice, and no rat receives more than two of the 8 treatments in any one study. Each rat is removed from its cage for about a minute to be weighed and treated. At least 6 days “washout” period precede and follow each treatment.
Sleep and wakefulness discrimination may be automated (e.g., Van Gelder et al. 1991; Edgar et al. 1997, Winrow et al., 2010; Gross et al., 2009).

[2] = Brain and plasma exposure levels in the SSRI combination study; details: combination with fluoxetine or citalopram versus alone
[3] = citalopram experiment, citalopram 1 mg/kg i.p.
[4] = fluoxetine experiment, fluoxetine 10 mg/kg i.p.

T7 sequence (O00222 34-908): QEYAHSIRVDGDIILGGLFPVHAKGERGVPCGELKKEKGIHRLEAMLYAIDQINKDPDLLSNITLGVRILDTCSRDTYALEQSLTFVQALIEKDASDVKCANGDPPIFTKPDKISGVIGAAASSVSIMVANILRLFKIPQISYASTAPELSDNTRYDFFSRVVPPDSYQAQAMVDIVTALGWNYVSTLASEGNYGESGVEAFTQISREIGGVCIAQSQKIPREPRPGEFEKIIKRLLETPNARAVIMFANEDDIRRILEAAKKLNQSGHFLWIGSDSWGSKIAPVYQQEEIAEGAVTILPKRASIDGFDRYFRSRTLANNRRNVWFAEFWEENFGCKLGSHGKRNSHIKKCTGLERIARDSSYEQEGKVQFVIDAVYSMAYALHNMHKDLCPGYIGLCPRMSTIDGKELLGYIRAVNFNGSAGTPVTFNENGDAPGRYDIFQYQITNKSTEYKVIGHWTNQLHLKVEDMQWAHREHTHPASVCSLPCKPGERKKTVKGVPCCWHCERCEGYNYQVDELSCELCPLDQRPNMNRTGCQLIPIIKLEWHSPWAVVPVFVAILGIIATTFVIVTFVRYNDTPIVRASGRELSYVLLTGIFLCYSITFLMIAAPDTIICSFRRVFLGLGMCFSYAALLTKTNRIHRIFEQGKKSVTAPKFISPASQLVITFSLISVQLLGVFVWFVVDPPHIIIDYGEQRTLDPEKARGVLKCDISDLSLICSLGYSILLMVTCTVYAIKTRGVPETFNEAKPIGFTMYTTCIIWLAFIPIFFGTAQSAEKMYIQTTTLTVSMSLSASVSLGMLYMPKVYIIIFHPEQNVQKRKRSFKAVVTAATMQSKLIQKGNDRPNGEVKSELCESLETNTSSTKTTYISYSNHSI
T5 sequence (P41594 21-1212): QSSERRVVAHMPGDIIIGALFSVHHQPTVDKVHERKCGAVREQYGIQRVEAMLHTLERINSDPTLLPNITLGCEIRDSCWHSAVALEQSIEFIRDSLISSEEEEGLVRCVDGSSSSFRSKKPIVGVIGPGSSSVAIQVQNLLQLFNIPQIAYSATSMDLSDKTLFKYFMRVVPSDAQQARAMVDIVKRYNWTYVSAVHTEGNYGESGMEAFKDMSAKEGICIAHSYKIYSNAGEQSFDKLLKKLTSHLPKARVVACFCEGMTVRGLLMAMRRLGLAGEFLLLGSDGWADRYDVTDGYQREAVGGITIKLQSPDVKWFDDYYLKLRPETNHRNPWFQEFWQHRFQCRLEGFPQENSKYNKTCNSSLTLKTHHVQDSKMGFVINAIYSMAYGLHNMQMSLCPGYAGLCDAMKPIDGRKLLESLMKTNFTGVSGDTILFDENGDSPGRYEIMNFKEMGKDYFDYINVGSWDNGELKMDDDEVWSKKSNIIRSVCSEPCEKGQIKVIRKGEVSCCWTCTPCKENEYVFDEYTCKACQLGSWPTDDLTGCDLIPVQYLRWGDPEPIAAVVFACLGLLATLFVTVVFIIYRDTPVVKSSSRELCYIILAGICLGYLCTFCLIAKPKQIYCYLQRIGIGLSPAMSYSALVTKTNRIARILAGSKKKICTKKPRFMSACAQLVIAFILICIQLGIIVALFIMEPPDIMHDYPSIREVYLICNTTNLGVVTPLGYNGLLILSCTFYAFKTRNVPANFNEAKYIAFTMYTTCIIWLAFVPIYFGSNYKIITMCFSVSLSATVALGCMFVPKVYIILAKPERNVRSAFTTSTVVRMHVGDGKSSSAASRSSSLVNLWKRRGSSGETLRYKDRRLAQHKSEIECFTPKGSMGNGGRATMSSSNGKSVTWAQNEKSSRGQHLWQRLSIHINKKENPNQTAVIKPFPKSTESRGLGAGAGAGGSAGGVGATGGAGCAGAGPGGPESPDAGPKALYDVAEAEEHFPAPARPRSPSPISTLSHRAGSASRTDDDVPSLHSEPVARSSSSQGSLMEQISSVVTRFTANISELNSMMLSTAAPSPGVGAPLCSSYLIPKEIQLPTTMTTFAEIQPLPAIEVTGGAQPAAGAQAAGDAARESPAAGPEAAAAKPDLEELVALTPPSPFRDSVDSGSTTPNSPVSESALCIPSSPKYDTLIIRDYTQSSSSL
T4 sequence (Q14833 33-912): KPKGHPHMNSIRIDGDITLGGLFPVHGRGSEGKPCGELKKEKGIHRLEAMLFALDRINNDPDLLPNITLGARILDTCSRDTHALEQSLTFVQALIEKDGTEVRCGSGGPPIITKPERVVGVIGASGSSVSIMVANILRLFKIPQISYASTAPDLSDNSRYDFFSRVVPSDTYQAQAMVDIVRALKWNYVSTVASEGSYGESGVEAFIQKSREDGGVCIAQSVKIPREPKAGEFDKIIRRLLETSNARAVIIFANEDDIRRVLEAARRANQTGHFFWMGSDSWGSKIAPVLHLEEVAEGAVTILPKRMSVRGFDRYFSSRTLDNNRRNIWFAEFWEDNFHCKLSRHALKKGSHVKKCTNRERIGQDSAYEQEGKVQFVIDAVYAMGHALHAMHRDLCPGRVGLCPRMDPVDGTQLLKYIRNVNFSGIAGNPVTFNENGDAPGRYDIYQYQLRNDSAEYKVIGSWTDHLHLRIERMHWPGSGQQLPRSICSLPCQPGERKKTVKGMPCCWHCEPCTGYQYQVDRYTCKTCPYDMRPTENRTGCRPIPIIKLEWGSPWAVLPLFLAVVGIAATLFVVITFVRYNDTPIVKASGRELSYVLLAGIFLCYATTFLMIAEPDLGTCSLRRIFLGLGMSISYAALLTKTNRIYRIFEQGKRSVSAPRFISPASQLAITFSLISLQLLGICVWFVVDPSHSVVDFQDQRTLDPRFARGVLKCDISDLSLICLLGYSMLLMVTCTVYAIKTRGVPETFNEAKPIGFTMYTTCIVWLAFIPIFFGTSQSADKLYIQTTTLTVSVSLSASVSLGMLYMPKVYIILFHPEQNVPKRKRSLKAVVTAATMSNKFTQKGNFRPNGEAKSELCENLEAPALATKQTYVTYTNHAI
T1 sequence (Q14416 19-872): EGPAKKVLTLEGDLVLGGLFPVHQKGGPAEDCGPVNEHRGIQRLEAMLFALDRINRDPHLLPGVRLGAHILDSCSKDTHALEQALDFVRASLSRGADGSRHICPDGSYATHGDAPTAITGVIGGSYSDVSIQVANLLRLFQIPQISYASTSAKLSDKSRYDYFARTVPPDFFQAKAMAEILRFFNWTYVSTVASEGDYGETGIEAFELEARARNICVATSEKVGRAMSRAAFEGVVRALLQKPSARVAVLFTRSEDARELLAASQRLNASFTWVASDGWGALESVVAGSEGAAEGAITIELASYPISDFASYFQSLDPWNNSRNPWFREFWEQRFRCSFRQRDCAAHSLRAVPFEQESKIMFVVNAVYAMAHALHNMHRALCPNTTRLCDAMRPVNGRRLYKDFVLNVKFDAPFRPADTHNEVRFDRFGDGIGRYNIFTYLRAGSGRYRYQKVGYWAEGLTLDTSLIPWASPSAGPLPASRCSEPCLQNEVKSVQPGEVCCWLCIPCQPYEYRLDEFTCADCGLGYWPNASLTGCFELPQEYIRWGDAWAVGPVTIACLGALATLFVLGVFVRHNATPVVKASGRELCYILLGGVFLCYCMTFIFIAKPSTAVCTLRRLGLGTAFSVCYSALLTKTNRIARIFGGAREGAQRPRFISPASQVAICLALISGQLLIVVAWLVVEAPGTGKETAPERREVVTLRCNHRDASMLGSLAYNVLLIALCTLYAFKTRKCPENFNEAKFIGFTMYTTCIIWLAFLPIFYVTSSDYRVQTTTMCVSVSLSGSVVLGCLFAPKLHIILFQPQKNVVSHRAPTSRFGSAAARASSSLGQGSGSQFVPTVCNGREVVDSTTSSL
T3 sequence (Q13255 19-1194): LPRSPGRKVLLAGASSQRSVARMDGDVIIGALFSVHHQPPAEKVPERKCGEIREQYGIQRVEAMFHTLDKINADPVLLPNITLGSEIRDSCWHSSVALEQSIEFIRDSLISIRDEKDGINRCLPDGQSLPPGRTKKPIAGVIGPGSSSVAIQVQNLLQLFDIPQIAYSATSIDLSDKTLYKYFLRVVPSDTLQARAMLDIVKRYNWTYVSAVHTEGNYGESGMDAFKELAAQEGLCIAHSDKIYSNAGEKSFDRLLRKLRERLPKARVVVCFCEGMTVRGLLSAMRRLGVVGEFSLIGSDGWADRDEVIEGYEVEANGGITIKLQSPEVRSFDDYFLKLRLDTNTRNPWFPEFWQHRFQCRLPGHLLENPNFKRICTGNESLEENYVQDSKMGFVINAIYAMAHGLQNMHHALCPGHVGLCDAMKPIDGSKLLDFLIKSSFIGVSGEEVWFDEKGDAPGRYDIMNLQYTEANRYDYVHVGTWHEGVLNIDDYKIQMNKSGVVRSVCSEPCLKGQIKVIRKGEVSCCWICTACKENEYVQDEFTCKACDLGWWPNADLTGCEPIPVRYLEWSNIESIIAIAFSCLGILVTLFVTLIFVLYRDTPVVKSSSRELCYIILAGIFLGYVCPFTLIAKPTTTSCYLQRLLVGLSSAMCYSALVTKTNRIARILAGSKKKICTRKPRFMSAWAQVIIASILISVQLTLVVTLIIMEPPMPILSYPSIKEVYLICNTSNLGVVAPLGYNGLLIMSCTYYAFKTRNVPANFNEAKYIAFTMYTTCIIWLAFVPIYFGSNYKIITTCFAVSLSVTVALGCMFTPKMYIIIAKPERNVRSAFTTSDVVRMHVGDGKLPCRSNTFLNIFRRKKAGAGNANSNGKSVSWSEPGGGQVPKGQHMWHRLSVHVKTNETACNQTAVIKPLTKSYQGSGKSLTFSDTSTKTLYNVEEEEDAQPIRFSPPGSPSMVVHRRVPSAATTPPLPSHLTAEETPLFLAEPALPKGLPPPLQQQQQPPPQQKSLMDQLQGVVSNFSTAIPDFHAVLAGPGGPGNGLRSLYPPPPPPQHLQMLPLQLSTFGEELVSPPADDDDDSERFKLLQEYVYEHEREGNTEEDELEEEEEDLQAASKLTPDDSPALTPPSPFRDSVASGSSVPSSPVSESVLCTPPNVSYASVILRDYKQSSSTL

Cl.N[C@]1(C(=O)O)[C@@H]2[C@@H](C(=O)O)[C@@H]2[C@H](O)[C@H]1CSc1ccc(F)c(Cl)c1 [Example 2, (1S,2R,3S,4S,5R,6R)-2-Amino-3-{[(3-chloro-4-fluorophenyl)sulfanyl]methyl}-4-hydroxybicyclo[3.1.0]hexane-2,6-dicarboxylic acid hydrochloride]
IC50 (human mGlu2 receptor): 12.7 ± 2.3 nM
IC50 (human mGlu3 receptor): 13.4 ± 3.4 nM
inhibition at 12.5 µM (human mGlu1 receptor): 7.9%
inhibition at 12.5 µM (human mGlu4 receptor): 28%
inhibition at 12.5 µM (human mGlu5 receptor): 21.4%
IC50 (human mGlu6 receptor): 1390 nM
inhibition at 12.5 µM (human mGlu8 receptor; 12.5 μM, inhibition of EC90 glutamate response, read-out: mGlu8 % inhib. @12.5 μM): 68.7%
IC50 (human mGlu8 receptor; FLIPR antagonist, in brackets under % inhib.): 7860 nM
ED60 (mg/kg) (male NIH-Swiss mice; i.p.): 24.5 (i.p.) mg/kg
Maximal Decrease (1 − compound/control) * 100% (male NIH-Swiss mice; i.p.): 33.5%
immobility time in mGlu2+/+ mice ([1]; 10 mg/kg, i.p., 30 min prior): significantly decrease immobility time

CC(C)OC(=O)OCOC(=O)[C@H]1[C@@H]2[C@H](O)[C@@H](CSc3ccc(F)c(F)c3)[C@@](N)(C(=O)OCOC(=O)OC(C)C)[C@H]12.Cl [Example 12, Bis({[(1-methylethoxy)carbonyl]oxy}methyl)(1S,2R,3S,4S,5R,6R)-2-amino-3-{[(3,4-difluorophenyl)sulfanyl]methyl}-4-hydroxybicyclo[3.1.0]hexane-2,6-dicarboxylate hydrochloride]
ED60 (mg/kg) (male NIH-Swiss mice; p.o.): 12.0 (p.o.) mg/kg
Maximal Decrease (1 − compound/control) * 100% (male NIH-Swiss mice; p.o.): 58.4%
Immobilization Time (mice; [3]): 140 s
Maximal Decrease (1 − compound/control) * 100% (mice; [3]): 20.9%
Immobilization Time (mice; [4]): 130 s
Maximal Decrease (1 − compound/control) * 100% (mice; [4]): 24.5%
Cumulative Time Awake first 7 hours, mean difference from vehicle controls (male Wistar rats; 10 mg/kg PO): 40.2 min
Locomotor Activity Intensity, mean difference from vehicle controls (male Wistar rats; 10 mg/kg PO): 4.5 counts of LMA per minute of EEG-defined wakefulness
Cumulative Time Awake 8-19 hours, mean difference from vehicle controls (male Wistar rats; 10 mg/kg PO): 12.1 min
Cumulative Time Awake first 7 hours, mean difference from vehicle controls (male Wistar rats; 30 mg/kg PO): 109.3 min
Locomotor Activity Intensity, mean difference from vehicle controls (male Wistar rats; 30 mg/kg PO): 3.0 counts of LMA per minute of EEG-defined wakefulness
Cumulative Time Awake 8-19 hours, mean difference from vehicle controls (male Wistar rats; 30 mg/kg PO): -4.1 min
Cumulative Time Awake first 7 hours, mean difference from vehicle controls (male Wistar rats; 60 mg/kg PO): 118.9 min
Locomotor Activity Intensity, mean difference from vehicle controls (male Wistar rats; 60 mg/kg PO): 4.9 counts of LMA per minute of EEG-defined wakefulness
Cumulative Time Awake 8-19 hours, mean difference from vehicle controls (male Wistar rats; 60 mg/kg PO): 2.7 min
immobility time in mGlu2+/+ mice ([1]; 30 mg/kg, po, 120 min prior): decrease immobility time
brain and plasma levels of the active di-acid moiety [2]: no increase in exposure levels
